Ends that are not written are not given here. * marks the point of attachment. Biotin = O=C1N[C@H]2[C@H](CS[C@H]2CCCCC(=O)*)N1
Columns and labels:
SteC1-457 = target: T1, SteC1-457 (Salmonella enterica, UniProt D0ZIB5); conditions: 5 μM MYL12A, 100 μM ATP with 20 kBq [γ-32P]ATP, 100 nM kinase, 10 mM MgCl2, pH 7.5, 30 °C
T1 construct: gene steC

[1] = target: SteC_(210-429) WT, minimal active kinase domain (Salmonella Typhimurium strain 14028s, UniProt D0ZIB5 210-429); assay: BLI; conditions: both partners purified
SteC_(210-429) WT, minimal active kinase domain, sequence (D0ZIB5 210-429): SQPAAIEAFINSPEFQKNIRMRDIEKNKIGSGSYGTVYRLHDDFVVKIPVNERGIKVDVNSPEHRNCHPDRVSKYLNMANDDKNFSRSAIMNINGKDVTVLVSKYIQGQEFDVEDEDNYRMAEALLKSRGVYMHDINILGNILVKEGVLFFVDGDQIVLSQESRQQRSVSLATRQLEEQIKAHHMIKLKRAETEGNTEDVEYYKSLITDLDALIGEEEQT

T1 sequence (D0ZIB5 whole entry): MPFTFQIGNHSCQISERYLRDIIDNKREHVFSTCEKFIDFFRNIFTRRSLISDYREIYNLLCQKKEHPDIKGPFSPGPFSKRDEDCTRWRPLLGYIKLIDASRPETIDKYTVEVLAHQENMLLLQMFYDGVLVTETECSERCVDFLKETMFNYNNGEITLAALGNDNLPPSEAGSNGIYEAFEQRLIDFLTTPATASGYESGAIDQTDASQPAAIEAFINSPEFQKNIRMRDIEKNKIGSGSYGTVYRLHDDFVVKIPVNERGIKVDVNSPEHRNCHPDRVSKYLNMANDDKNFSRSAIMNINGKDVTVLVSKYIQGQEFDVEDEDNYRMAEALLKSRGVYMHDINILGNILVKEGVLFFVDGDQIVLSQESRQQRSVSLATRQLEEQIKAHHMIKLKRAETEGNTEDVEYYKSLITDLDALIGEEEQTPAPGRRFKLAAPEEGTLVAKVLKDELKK

Q: Nc1ncnc2c1ncn2[C@@H]1O[C@H](COP(=O)(O)OP(=O)(O)OP(=O)(O)O)[C@@H](O)[C@H]1O [ATP] was tested. Which “radioactive kinase assay, SDS-PAGE autoradiography” value (SteC1-457) did it give?
A: SteC1-457 mediated phosphorylation of MYL12A

Q: Which Kd [1] does the source give for Biotin-KGPPSSVPKSRHLTIKLTPAHSRK (peptide, UniProt O95466 190-213, looked up) [N-terminally biotinylated FMNL1 peptide (K190-K213)] here?
A: 7.9 µM

From article PMC13395416 (PLOS Pathogens, 2026)
